# Numbered stars: 1 amine (or outer) side, 2 acyl side, 3 side chain; on linkers, the order of the positions; unused ones are H or OH. Square brackets hold non-standard residues; d marks the D form. Peptide text beside a SMILES is read from it. * marks the point of attachment. Trimesoyl = O=C(c1cc(C(=O)[*:2])cc(C(=O)[*:3])c1)[*:1]; Thiophene2carbonyl = O=C(c1cccs1)*; 1Naphthoyl = O=C(c1cccc2ccccc12)*; Galloyl = O=C(c1cc(O)c(O)c(O)c1)*; Trx = NC[C@H]1CC[C@H](C(=O)O)CC1; 4Amb = NCc1ccc(C(=O)O)cc1; 4Abz = Nc1ccc(C(=O)O)cc1; Butyryl = CCCC(=O)*; Bz = O=C(c1ccccc1)*; X1 = CN(C)CCCC(=O)*; Ahx = NCCCCCC(=O)O; GABA = NCCCC(=O)O
# Target: T1, human P-selectin (Homo sapiens, UniProt P16109)
# T1 construct: IgG-Fc (fusion partner); purchased R&D Systems Europe Ltd., Abingdon, United Kingdom
# Assay: Competition assay with TM11-PO (competition ELISA)
# Type: binding
# Settings: Table 1; derivatised peptides HPij; inhibition of TM11-PO binding to human P-selectin; read-out: IC50
# Description: Compounds according to the invention, as prepared in examples 1, 2 and 3 and some reference peptide compounds were assayed for its ability to inhibit TM11-PO binding to human P-selectin. […] For competition studies, a 96 wells microtiter plate (high binding, flat bottom, Costar, Corning, U.S.A.) was coated overnight at 4° C. with 10 μg/ml goat anti-human IgG (Fc specific) (Sigma-Aldrich, Zwijndrecht, the Netherlands) in coating buffer (50 mM NaHCO3, pH 9.6). Subsequently, wells were washed with assay buffer and incubated for 1 hour at 37° C. with blocking buffer (3% BSA in assay buffer). After washing with assay buffer, the wells were incubated for 2 hours at 37° C. with the human P-selectin IgG-Fc chimera (R&D Systems Europe Ltd., Abingdon, United Kingdom) (0.3 μg/ml). Subsequently, wells were washed with assay buffer and incubated for 1 hour at 4° C. with the TM11-PO complex. The wells were washed six times with washing buffer (0.1% Tween 20 in assay buffer). […] (TMB)/hydrogen peroxide (H2O2) (Pierce, Rochford, U.S.A.) was added and wells were incubated at room temperature for 15 minutes. The reaction was halted by addition of 2 M H2SO4 and the absorbance was measured at 450 nm.
# T1 sequence (P16109 with tags, fused parts or gaps limits assumed): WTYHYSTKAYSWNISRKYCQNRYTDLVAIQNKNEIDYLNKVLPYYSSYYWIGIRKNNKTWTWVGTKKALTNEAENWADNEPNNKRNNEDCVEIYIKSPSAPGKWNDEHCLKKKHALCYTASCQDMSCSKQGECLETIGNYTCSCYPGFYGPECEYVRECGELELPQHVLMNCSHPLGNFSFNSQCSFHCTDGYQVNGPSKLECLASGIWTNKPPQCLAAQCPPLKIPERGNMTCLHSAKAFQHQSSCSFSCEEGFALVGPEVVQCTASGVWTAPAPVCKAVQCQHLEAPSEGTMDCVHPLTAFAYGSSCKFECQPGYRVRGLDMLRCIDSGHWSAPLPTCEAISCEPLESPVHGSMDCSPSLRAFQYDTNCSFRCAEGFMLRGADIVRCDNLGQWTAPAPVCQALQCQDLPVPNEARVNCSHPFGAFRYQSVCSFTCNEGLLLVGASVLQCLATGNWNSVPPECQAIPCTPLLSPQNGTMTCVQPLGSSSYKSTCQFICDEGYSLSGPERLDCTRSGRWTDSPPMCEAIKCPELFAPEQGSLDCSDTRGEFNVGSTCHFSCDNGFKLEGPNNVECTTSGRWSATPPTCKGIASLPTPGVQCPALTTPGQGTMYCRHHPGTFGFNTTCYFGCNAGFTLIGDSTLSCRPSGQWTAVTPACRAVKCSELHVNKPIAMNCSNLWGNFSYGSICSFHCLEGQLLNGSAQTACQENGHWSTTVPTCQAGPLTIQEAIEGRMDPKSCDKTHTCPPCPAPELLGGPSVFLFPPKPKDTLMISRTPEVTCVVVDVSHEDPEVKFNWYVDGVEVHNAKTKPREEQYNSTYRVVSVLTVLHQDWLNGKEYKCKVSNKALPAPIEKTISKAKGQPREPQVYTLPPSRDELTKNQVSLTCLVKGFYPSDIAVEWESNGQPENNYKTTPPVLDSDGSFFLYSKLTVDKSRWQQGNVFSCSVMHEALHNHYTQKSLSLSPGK
row,Compound,IC50 [nM]
1,CC(C)[C@H](NC(=O)[C@H](CC(=O)O)NC(=O)[C@@H](NC(=O)[C@H](Cc1c[nH]c2ccccc12)NC(=O)[C@H](CCC(=O)O)NC(=O)c1cc(O)c(O)c(O)c1)C(C)C)C(=O)N[C@@H](CCCCNC(=O)c1cccs1)C(=O)NCCCC(=O)O [HP63] (Galloyl-EWVDVK(Thiophene2carbonyl)[GABA]-OH),3400
2,CC(C)[C@H](NC(=O)[C@H](CC(=O)O)NC(=O)[C@@H](NC(=O)[C@H](Cc1c[nH]c2ccccc12)NC(=O)[C@H](CCC(=O)O)NC(=O)c1cc(C(=O)O)cc(C(=O)O)c1)C(C)C)C(=O)N[C@@H](CCCCNC(=O)c1cc(O)c(O)c(O)c1)C(=O)NCCCC(=O)O [HP16] (Trimesoyl-EWVDVK(Galloyl)[GABA]-OH),310
3,CC(C)[C@H](NC(=O)[C@H](CC(=O)O)NC(=O)[C@@H](NC(=O)[C@H](Cc1c[nH]c2ccccc12)NC(=O)[C@H](CCC(=O)O)NC(=O)c1cc(O)c(O)c(O)c1)C(C)C)C(=O)N[C@@H](CCCCNC(=O)CCCN(C)C)C(=O)NCCCC(=O)O [HP62] (Galloyl-EWVDVK(X1)[GABA]-OH),280
4,CCCC(=O)NCCCC[C@H](NC(=O)[C@@H](NC(=O)[C@H](CC(=O)O)NC(=O)[C@@H](NC(=O)[C@H](Cc1c[nH]c2ccccc12)NC(=O)[C@H](CCC(=O)O)NC(=O)c1cc(O)c(O)c(O)c1)C(C)C)C(C)C)C(=O)NCCCC(=O)O [HP65] (Galloyl-EWVDVK(Butyryl)[GABA]-OH),2350
5,CC(C)[C@H](NC(=O)[C@H](CC(=O)O)NC(=O)[C@@H](NC(=O)[C@H](Cc1c[nH]c2ccccc12)NC(=O)[C@H](CCC(=O)O)NC(=O)c1cc(O)c(O)c(O)c1)C(C)C)C(=O)N[C@@H](CCCCNC(=O)c1cc(C(=O)O)cc(C(=O)O)c1)C(=O)NCCCC(=O)O [HP61] (Galloyl-EWVDVK(Trimesoyl)[GABA]-OH),190
6,CC(C)[C@H](NC(=O)[C@H](CC(=O)O)NC(=O)[C@@H](NC(=O)[C@H](Cc1c[nH]c2ccccc12)NC(=O)[C@H](CCC(=O)O)NC(=O)c1cc(C(=O)O)cc(C(=O)O)c1)C(C)C)C(=O)N[C@@H](CCCCNC(=O)c1cccc2ccccc12)C(=O)NCCCC(=O)O [HP14] (Trimesoyl-EWVDVK(1Naphthoyl)[GABA]-OH),1020
7,CC(C)[C@H](NC(=O)[C@H](CC(=O)O)NC(=O)[C@@H](NC(=O)[C@H](Cc1c[nH]c2ccccc12)NC(=O)[C@H](CCC(=O)O)NC(=O)c1cc(O)c(O)c(O)c1)C(C)C)C(=O)N[C@@H](CCCCN)C(=O)NCCCC(=O)O [HP60] (Galloyl-EWVDVK[GABA]-OH),1100
8,CC(C)[C@H](NC(=O)[C@H](CC(=O)O)NC(=O)[C@@H](NC(=O)[C@H](Cc1c[nH]c2ccccc12)NC(=O)[C@H](CCC(=O)O)NC(=O)c1cc(C(=O)O)cc(C(=O)O)c1)C(C)C)C(=O)N[C@@H](CCCCNC(=O)c1ccccc1)C(=O)NCCCC(=O)O [HP17] (Trimesoyl-EWVDVK(Bz)[GABA]-OH),450
9,CC(C)[C@H](NC(=O)[C@H](CC(=O)O)NC(=O)[C@@H](NC(=O)[C@H](Cc1c[nH]c2ccccc12)NC(=O)[C@@H](N)CCC(=O)O)C(C)C)C(=O)N[C@@H](CCCCNC(=O)c1cc(O)c(O)c(O)c1)C(=O)NCCCC(=O)O [HP06] (H-EWVDVK(Galloyl)[GABA]-OH),6000

# Same assay, conditions: Table 2; average of at least 3 experiments at 8 concentrations, TM11-PO competition ELISA; read-out: IC50 for human P-selectin as determined by competition Elisa
row,Compound,IC50 [nM]
1,"CC(C)[C@H](NC(=O)[C@H](CC(=O)O)NC(=O)[C@@H](NC(=O)[C@H](Cc1c[nH]c2ccccc12)NC(=O)c1cc(O)c(O)c(O)c1)C(C)C)C(=O)O [Peptide 12, GA-WVDV] (Galloyl-WVDV-OH)",37

# Same assay, conditions: Table 3; gallic acid derivatized peptides; mean of at least 3 experiments at 8 concentrations; read-out: IC50 for human P-selectin as determined by competition Elisa
row,Compound,IC50 [nM]
1,CC(C)[C@H](NC(=O)[C@H](CC(=O)O)NC(=O)[C@@H](NC(=O)[C@H](Cc1c[nH]c2ccccc12)NC(=O)CNC(=O)c1cc(O)c(O)c(O)c1)C(C)C)C(=O)O [Peptide 27] (Galloyl-GWVDV-OH),18.3
2,CC(C)[C@H](NC(=O)[C@H](CC(=O)O)NC(=O)[C@@H](NC(=O)[C@H](Cc1c[nH]c2ccccc12)NC(=O)CCCNC(=O)c1cc(O)c(O)c(O)c1)C(C)C)C(=O)O [Peptide 28] ({Galloyl-GABA}-WVDV-OH),15.4
3,CC(C)[C@H](NC(=O)[C@H](CC(=O)O)NC(=O)[C@@H](NC(=O)[C@H](Cc1c[nH]c2ccccc12)NC(=O)[C@@H]1CCCN1C(=O)c1cc(O)c(O)c(O)c1)C(C)C)C(=O)O [Peptide 30] (Galloyl-PWVDV-OH),250
4,CC(C)[C@H](NC(=O)[C@H](CC(=O)O)NC(=O)[C@@H](NC(=O)[C@H](Cc1c[nH]c2ccccc12)NC(=O)CCCCCNC(=O)c1cc(O)c(O)c(O)c1)C(C)C)C(=O)O [Peptide 29] ({Galloyl-Ahx}-WVDV-OH),62.9
5,"CC(C)[C@H](NC(=O)[C@H](CC(=O)O)NC(=O)[C@@H](NC(=O)[C@H](Cc1c[nH]c2ccccc12)NC(=O)c1cc(O)c(O)c(O)c1)C(C)C)C(=O)O [Peptide 12, GA-WVDV] (Galloyl-WVDV-OH)",37.1
6,CC(C)[C@H](NC(=O)[C@H](CC(=O)O)NC(=O)[C@@H](NC(=O)[C@H](Cc1c[nH]c2ccccc12)NC(=O)[C@H]1CC[C@H](CNC(=O)c2cc(O)c(O)c(O)c2)CC1)C(C)C)C(=O)O [Peptide 33] ({Galloyl-Trx}-WVDV-OH),580
7,CC(C)[C@H](NC(=O)[C@H](CC(=O)O)NC(=O)[C@@H](NC(=O)[C@H](Cc1c[nH]c2ccccc12)NC(=O)c1ccc(CNC(=O)c2cc(O)c(O)c(O)c2)cc1)C(C)C)C(=O)O [Peptide 32] ({Galloyl-4Amb}-WVDV-OH),590
8,CC(C)[C@H](NC(=O)[C@H](CC(=O)O)NC(=O)[C@@H](NC(=O)[C@H](Cc1c[nH]c2ccccc12)NC(=O)c1ccc(NC(=O)c2cc(O)c(O)c(O)c2)cc1)C(C)C)C(=O)O [Peptide 31] ({Galloyl-4Abz}-WVDV-OH),> 1000

# Target: T2, P-selectin (Homo sapiens, UniProt P16109)
# T2 sequence (P16109 42-830): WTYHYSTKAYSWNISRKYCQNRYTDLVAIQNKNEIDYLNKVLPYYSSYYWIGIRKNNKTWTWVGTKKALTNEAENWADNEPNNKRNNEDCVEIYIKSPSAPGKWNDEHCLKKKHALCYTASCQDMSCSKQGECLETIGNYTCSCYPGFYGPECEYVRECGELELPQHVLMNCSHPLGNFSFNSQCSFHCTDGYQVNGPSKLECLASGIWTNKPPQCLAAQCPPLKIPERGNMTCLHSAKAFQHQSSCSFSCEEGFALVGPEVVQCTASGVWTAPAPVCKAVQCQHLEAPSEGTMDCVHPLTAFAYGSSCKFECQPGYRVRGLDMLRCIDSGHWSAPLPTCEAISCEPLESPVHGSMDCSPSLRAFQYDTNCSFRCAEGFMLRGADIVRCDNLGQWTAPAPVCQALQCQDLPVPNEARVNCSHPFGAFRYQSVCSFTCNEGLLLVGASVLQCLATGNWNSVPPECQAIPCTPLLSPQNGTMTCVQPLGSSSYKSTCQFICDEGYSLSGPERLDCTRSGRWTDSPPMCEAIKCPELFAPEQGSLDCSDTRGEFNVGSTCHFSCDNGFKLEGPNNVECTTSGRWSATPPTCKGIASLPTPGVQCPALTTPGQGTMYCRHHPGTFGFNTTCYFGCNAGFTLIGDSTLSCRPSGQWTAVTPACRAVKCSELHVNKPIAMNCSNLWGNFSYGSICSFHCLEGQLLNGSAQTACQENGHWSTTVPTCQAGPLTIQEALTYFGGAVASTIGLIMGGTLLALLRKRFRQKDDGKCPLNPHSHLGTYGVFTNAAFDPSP
# Assay: not given
# Settings: described in European patent application No. 01203314.8; read-out: affinity for P-selectin, IC50; cited from earlier work
row,Compound,IC50 [nM]
1,EWVDV [Peptide A29],~2000

# Target: T1, human P-selectin
# Assay: not given
# Settings: Table 2; values marked b, from not pre-published European patent application 01203314.8; read-out: IC50 for human P-selectin as determined by competition Elisa; cited from earlier work
row,Compound,IC50 [µM]
1,DWVDV [Peptide A129],16
2,AWVDV [Peptide A131],27
3,CDVEWVDVSSLEWDLPC [TM11],2
4,WVDV [Peptide A138],> 1000
5,EWVDV [Peptide A29],8
6,KWVDV [Peptide A130],28

# Reference: patent publication US20060217294A1, “Compounds binding to p-selectin” (YAMANOUCHI EUROPE B.V., priority 2002, published 2006)
